Results as given in patent US20250000999A1, “POLYMERSOMES FOR CLEARANCE OF AMYLOID BETA AND/OR TAU PROTEINS” (UCL Business Ltd, priority 2021, published 2025).

Tested on: LRP-1
Experiment: Single binding energy of a ligand/LRP-1 receptor pair
Description: wherein: • λ is the density of the ligand type on the external surface of the microparticle or nanoparticle (number per nm^2 • A is the microparticle or nanoparticle surface area (in nm^2); • ξ is the number of the LRP-1 receptors accessible to the nanoparticles, and thus ξ=ΓA where, Γ is the LRP-1 surface density (number per nm^2) and A is as defined above; • β=(kBT)^−1 wherein kB is the Boltzmann constant (in JK^−1) and T is the absolute temperature in Kelvin; • εB is the single energy of binding of a ligand type/LRP-1 receptor pair (in J); and • uS is the steric potential between the nanoparticle or microparticle and the cell surface (in J).
The single ligand binding potential εB between a given ligand and the LRP-1 receptor can be measured experimentally by binding assays including Surface plasmon resonance spectroscopy, Isothermal titration calorimetry, radiolabeling or fluorescent labelling. It can also be estimated computationally using molecular docking and or molecular dynamics methods.

Chain of LRP-1 (Q07954 20-4544, species assumed): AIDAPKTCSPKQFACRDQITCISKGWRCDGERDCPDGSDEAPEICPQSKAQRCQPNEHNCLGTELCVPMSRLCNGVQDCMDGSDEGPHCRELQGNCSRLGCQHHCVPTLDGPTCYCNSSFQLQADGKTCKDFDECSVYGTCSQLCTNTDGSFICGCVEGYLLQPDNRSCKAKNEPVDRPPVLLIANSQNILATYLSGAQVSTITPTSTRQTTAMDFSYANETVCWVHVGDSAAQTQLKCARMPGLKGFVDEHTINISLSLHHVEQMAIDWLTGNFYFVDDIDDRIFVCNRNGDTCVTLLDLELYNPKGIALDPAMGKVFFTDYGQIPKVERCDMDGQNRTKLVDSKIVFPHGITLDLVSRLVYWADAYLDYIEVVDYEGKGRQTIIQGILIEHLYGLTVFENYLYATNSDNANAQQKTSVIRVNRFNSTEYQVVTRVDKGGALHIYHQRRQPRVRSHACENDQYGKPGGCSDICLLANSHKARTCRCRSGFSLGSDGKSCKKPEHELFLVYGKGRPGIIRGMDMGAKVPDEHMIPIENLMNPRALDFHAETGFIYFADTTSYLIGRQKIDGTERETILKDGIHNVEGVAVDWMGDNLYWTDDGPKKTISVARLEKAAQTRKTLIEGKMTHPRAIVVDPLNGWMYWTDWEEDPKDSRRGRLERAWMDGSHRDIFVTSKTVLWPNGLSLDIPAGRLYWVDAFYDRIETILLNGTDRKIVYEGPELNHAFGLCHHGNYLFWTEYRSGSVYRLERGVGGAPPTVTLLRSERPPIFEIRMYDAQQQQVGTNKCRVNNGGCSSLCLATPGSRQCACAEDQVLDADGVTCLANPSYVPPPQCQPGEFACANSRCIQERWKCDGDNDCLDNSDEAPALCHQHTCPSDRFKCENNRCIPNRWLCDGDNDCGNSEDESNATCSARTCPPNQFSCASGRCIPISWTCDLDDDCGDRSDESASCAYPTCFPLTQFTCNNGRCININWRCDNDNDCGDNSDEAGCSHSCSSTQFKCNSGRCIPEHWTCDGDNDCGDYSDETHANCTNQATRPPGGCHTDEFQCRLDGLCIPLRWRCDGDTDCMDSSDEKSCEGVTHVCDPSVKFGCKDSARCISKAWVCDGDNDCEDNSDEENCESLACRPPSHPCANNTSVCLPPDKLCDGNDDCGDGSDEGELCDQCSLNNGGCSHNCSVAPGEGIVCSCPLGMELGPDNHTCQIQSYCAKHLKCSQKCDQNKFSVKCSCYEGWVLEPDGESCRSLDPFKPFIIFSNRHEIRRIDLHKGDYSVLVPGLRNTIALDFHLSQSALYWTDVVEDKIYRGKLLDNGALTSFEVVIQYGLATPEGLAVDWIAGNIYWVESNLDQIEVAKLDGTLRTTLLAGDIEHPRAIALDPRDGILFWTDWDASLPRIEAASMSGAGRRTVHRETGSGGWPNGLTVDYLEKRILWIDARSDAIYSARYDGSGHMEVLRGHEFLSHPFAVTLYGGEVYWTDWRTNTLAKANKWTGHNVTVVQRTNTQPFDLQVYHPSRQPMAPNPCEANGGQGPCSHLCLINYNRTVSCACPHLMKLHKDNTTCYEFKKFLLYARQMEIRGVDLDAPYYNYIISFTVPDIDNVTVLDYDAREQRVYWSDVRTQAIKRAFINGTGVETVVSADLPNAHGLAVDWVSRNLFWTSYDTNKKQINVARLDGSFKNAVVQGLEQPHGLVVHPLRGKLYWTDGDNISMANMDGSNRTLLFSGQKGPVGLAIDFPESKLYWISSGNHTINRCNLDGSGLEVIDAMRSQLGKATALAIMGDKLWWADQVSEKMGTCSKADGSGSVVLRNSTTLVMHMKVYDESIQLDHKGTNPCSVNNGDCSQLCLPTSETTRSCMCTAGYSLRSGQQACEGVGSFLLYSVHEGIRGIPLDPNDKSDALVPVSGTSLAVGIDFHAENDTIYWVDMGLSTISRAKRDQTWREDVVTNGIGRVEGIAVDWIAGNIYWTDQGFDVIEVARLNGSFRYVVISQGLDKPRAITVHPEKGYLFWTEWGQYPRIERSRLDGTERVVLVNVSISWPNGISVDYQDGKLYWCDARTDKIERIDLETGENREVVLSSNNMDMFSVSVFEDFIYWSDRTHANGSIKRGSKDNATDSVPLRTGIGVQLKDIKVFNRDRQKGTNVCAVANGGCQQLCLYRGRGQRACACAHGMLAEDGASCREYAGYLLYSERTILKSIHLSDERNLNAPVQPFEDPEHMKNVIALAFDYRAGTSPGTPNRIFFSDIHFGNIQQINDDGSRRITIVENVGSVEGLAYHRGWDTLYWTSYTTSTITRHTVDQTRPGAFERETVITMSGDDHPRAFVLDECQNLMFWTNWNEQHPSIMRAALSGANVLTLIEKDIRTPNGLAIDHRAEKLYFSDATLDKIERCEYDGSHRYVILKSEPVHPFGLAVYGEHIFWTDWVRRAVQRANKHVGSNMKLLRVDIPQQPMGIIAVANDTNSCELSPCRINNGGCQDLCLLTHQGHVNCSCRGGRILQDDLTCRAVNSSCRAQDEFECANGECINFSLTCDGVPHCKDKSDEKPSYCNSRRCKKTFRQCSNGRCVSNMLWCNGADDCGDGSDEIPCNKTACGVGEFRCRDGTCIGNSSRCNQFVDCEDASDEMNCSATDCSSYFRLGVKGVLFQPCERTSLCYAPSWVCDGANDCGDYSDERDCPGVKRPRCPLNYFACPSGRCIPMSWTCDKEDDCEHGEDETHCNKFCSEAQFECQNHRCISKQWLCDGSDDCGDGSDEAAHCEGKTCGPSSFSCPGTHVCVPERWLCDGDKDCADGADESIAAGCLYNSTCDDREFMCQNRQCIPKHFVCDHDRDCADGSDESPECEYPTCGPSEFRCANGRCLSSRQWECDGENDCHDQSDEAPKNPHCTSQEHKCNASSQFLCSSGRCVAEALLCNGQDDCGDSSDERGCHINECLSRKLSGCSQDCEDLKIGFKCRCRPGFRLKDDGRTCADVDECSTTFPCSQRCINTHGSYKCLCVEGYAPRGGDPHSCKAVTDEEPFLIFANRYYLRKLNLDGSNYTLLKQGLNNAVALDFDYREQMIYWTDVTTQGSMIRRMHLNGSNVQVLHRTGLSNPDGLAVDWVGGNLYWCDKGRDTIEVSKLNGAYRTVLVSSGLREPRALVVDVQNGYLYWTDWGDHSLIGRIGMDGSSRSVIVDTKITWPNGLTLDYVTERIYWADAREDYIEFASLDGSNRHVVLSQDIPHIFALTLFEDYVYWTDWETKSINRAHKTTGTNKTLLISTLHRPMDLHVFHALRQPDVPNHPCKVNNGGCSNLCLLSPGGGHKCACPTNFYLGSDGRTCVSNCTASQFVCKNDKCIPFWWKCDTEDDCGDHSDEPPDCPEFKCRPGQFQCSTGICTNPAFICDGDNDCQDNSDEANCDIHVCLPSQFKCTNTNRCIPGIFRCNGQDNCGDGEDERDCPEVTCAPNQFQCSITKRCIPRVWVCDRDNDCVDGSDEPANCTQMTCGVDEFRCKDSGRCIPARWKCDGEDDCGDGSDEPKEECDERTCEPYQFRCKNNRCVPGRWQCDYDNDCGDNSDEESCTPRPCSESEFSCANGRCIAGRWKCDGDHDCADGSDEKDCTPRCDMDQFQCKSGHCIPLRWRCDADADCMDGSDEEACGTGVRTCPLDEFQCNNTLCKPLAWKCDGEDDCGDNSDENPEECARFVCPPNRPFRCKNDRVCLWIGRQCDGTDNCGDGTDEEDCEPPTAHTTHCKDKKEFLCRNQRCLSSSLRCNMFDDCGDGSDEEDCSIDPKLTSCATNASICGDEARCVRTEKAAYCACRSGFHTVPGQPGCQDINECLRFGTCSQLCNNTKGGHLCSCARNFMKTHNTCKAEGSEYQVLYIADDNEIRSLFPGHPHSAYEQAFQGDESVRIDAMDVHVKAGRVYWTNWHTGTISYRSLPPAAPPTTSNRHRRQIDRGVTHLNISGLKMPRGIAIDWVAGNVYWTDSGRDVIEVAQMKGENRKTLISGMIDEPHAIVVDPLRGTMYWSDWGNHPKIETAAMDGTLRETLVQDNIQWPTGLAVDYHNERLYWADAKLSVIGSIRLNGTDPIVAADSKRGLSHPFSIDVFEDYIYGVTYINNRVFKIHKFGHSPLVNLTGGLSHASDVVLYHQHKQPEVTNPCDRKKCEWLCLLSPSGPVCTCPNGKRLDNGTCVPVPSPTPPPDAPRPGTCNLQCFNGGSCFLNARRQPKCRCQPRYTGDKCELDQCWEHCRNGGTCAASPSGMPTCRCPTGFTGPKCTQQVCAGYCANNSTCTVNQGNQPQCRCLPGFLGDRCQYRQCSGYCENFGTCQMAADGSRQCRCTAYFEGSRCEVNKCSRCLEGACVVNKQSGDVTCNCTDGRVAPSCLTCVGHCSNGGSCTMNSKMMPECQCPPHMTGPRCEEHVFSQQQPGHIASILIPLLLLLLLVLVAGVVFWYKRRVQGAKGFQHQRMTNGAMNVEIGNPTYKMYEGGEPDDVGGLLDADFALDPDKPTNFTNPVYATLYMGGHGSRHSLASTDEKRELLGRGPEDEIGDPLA

For TFFYGGSRGKRNNFKTEEY [Angiopep-2], the “εB, single energy of binding of ligand/LRP-1 receptor pair” value was −15 kBT.
